Source: patent US6143769A, “Phenylacetic acid benzylamides” (Karl Thomae GmbH, priority 1983, dated 2000)
Like-named read-outs stand apart in the source and are kept apart here.

Columns and labels:
blood glucose = test: Test for hypoglycemic activity in fasted female rats (oral); assay type: in vivo; conditions: for change in vivo at 0.5 mg/kg / change in vivo at 1 mg/kg: Rattus norvegicus, po, read-out: Change in glucose content compared with control
Protocol: Blood samples were taken immediately before the administration of the test compound and 1, 2, 3 and 4 hours afterwards, in each case from the retroorbital Venous plexus. 50 μl of each sample were deproteinated with 0.5 ml of 0.33 N perchloric acid and centrifuged. The glucose in the supernatant fluid was measured using the hexokinase method with the aid of an analytical photometer. The statistical evaluation was made using the t-test according to Student with p=0.05 as the limit of significance.

blood sugar = test: Blood sugar-lowering effect of the enantiomers in fasted female rats (oral); assay type: in vivo; conditions: 1.0 mg/kg p.o.
Protocol: The substances to be investigated were suspended in 1.5% methylcellulose immediately before the start of the test and administered into the oesophagus. […] Glucose was measured in the supernatant by the hexokinase method using an analytical photometer. The statistical evaluation was carried out using the Student's t-test with p=0.05 as the limit of significance. Table 1 which follows contains the statistically significant values as percentage deviations from the control: […]

clinical = conditions: human, plasma, 1 mg
Protocol: More specifically, the studies which follow were carried out on healthy male volunteers in whom the levels of glucose and active substance in the course of time were determined:
In the interests of more precise clarification, study 5 was carried out (randomised, open, crossover). […] 2 hours after administration a standard breakfast (B) was eaten, 5 hours after administration a standard lunch (L) was eaten and 10 hours after administration a standard dinner (D) was eaten. Blood samples were taken at different times. The glucose concentrations were measured in the plasma as in study 1. […] The plasma concentrations of AG-EE 624 ZW were calculated as the difference between the two concentrations found:

SMILES	change in vivo at 0.5 mg/kg (blood glucose; 0.5 mg/kg, 1 h) [%]	change in vivo at 0.5 mg/kg (blood glucose; 0.5 mg/kg, 2 h) [%]	change in vivo at 0.5 mg/kg (blood glucose; 0.5 mg/kg, 3 h) [%]	change in vivo at 0.5 mg/kg (blood glucose; 0.5 mg/kg, 4 h) [%]	change in vivo at 1 mg/kg (blood glucose; 1 mg/kg, 1 h) [%]	change in vivo at 1 mg/kg (blood glucose; 1 mg/kg, 2 h) [%]	change in vivo at 1 mg/kg (blood glucose; 1 mg/kg, 3 h) [%]	change in vivo at 1 mg/kg (blood glucose; 1 mg/kg, 4 h) [%]	other results
CCCC(NC(=O)Cc1ccc(C(=O)O)c(OCC)c1)c1ccccc1N1CCCC1 (stereo not drawn) [G, sodium 2-ethoxy-4-[N-{1-(2-pyrrolidino-phenyl)-1-butyl}-aminocarbonylmethyl]-benzoate]	-40	-33	-30	-17	–	–	–	–	–
CCOc1cc(CC(=O)NC(C(=O)OC)c2ccccc2N2CCCCC2)ccc1C(=O)O (stereo not drawn) [S, 2-ethoxy-4-[N-(α-methoxycarbonyl-2-piperidino-benzyl)-aminocarbonylmethyl]-benzoic acid]	–	–	–	–	-42	-35	-28	-18	–
C=C(C)CC(NC(=O)Cc1ccc(C(=O)O)c(OCC)c1)c1ccccc1N1CCCCC1 (stereo not drawn) [X, 2-ethoxy-4-[N-(1-(2-piperidino-phenyl)-3-methyl-3-buten-1-yl)-aminocarbonylmethyl]benzoic acid]	-44	-41	-31	-28	–	–	–	–	–
COc1cc(CC(=O)NC(C)c2ccccc2N2CCCCC2)ccc1C(=O)O (stereo not drawn) [Compound A, 2-methoxy-4-[N-{1-(2-piperidino-phenyl)-1-ethyl}-aminocarbonylmethyl]-benzoic acid]	–	–	–	–	-37	-46	-23	-14	–
C=CCC(NC(=O)Cc1ccc(C(=O)O)c(OCC)c1)c1ccccc1N1CCCCC1 (stereo not drawn) [W, 2-ethoxy-4-[N-(1-(2-piperidino-phenyl)-3-buten-1-yl)-aminocarbonylmethyl]benzoic acid]	-42	-39	-28	-35	–	–	–	–	–
CCOc1cc(CC(=O)NC(CC2CCCCC2)c2ccccc2N2CCCCC2)ccc1C(=O)O (stereo not drawn) [Q, 2-ethoxy-4-[N-(α-cyclohexylmethyl-2-piperidino-benzyl)-aminocarbonyl-methyl]-benzoic acid]	-22	-47	-45	-45	–	–	–	–	–
CCOc1cc(CC(=O)NC(c2ccccc2)c2ccc(C)cc2N2CCCCC2)ccc1C(=O)O (stereo not drawn) [M, 2-ethoxy-4-[N-(4-methyl-α-phenyl1-2-piperidino-benzyl)-aminocarbonylmethyl]-benzoic acid]	–	–	–	–	-44	-41	-35	-27	–
CCCC(NC(=O)Cc1ccc(C(=O)O)c(OCC)c1)c1ccccc1N1CCCCC1 (single isomer, unassigned; (+)) [E, (+)-2-ethoxy-4-[N-{1-(2-piperidino-phenyl)-1-butyl}-aminocarbonylmethyl]-benzoic acid]	-40	-39	-36	-36	–	–	–	–	–
CCCC(NC(=O)Cc1ccc(CC#N)c(OCC)c1)c1ccccc1N1CCCCC1 (stereo not drawn) [O, [2-ethoxy-4-[N-(1-(2-piperidino-phenyl)-1-butyl)-aminocarbonylmethyl]-phenyl]-acetonitrile]	–	–	–	–	-29	-37	-35	-34	–
CCCC(NC(=O)Cc1ccc(C(=O)O)c(OC)c1)c1ccccc1N1CCCCC1 (stereo not drawn) [I, 2-methoxy-4-[N-{1-(2-piperidino-phenyl)-1-butyl}-aminocarbonylmethyl]-benzoic acid]	-42	-39	-37	-30	–	–	–	–	–
CCOc1cc(CC(=O)NC(CC2CCCO2)c2ccccc2N2CCCCC2)ccc1C(=O)O (stereo not drawn) [V, 2-ethoxy-4-[N-(α-(tetrahydrofuran-2-yl-methyl)-2-piperidino-benzyl)-aminocarbonylmethyl]benzoic acid]	-46	-25	-13	-10	–	–	–	–	–
CCOc1cc(CC(=O)NC(CC2CC2)c2ccccc2N2CCCCC2)ccc1C(=O)O (stereo not drawn) [U, 2-ethoxy-4-[N-(α-cyclopropylmethyl-2-piperidino-benzyl)-aminocarbonylmethyl]benzoic acid]	-45	-45	-36	-36	–	–	–	–	–
COc1cc(CC(=O)NC(c2ccccc2)c2ccccc2N2CCCCC2)ccc1C(=O)O (stereo not drawn) [C, 2-methoxy-4-[N-(α-phenyl-2-piperidino-benzyl)-aminocarbonymethyl]-benzoic acid]	–	–	–	–	-38	-41	-38	-34	–
CCOc1cc(CC(=O)NC(c2ccccc2)c2ccccc2N2CCCCC2)ccc1CC#N (stereo not drawn) [P, [2-ethoxy-4-[N-(α-phenyl-2-piperidino-benzyl)-aminocarbonylmethyl]-phenyl]acetonitrile]	–	–	–	–	-12	-10	-14	-14	–
C#CCC(NC(=O)Cc1ccc(C(=O)O)c(OCC)c1)c1ccccc1N1CCCCC1 (stereo not drawn) [Y, 2-ethoxy-4-[N-(1-(2-piperidino-phenyl)-3-butyn-1-yl)-aminocarbonylmethyl]benzoic acid]	-33	-18	-11	–	–	–	–	–	Change in glucose content compared with control (blood glucose; 0.5 mg/kg, 4 h): n.s.
CCOC(=O)C(NC(=O)Cc1ccc(C(=O)O)c(OCC)c1)c1ccccc1N1CCCCC1 (stereo not drawn) [R, 2-ethoxy-4-[N-(α-ethoxycarbonyl-2-piperidino-benzyl)-aminocarbonylmethyl]-benzoic acid]	–	–	–	–	-33	-17	–	–	Change in glucose content compared with control (blood glucose; 1 mg/kg, 3 h): n.s.; Change in glucose content compared with control (blood glucose; 1 mg/kg, 4 h): n.s.
CCCOc1cc(CC(=O)NC(CCC)c2ccccc2N2CCCCC2)ccc1C(=O)O (stereo not drawn) [K, 2-n-propoxy-4-[N-{1-(2-piperidino-phenyl)-1-butyl}-aminocarbonylmethyl]-benzoic acid]	-34	-36	-24	–	–	–	–	–	Change in glucose content compared with control (blood glucose; 0.5 mg/kg, 4 h): n.s.
CCOc1cc(CC(=O)NC(C)c2ccccc2N2CCCCC2)ccc1C(=O)O (stereo not drawn) [F, 2-ethoxy-4-[N-{1-(2-piperidino-phenyl)-1-ethyl}-aminocarbonylmethyl]-benzoic acid]	–	–	–	–	-44	-44	-40	-30	–
CCOc1cc(CC(=O)N[C@H](CC(C)C)c2ccccc2N2CCCCC2)ccc1C(=O)O [AG-EE 624 ZW, (R)(-)-2-ethoxy-4-[N-[1-(2-piperidino-phenyl)-3-methyl-1-butyl]aminocarbonylmethyl]-benzoic acid]	–	–	–	–	–	–	–	–	Glucose, percentage deviation from control (blood sugar; 1 h): n.s.; Glucose, percentage deviation from control (blood sugar; 2 h): n.s.; Glucose, percentage deviation from control (blood sugar; 3 h): n.s.; Glucose, percentage deviation from control (blood sugar; 4 h): n.s.; MRT (clinical; iv): 3.3 ± 1.7 h; clearance (clinical; iv): 75 ± 34 mL/min; bioavailability (clinical; po): 83 ± 32%
CCCC(NC(=O)Cc1ccc(C(=O)O)c(OCC)c1)c1ccccc1N1CCCCC1 (stereo not drawn) [B, 2-ethoxy-4-[N-{1-(2-piperidino-phenyl)-1-butyl}-aminocarbonylmethyl]-benzoic acid]	-43	-36	-34	-35	-38	-49	-38	-33	–
CCCC(NC(=O)Cc1ccc(C(=O)O)c(OCC)c1)c1ccccc1N1CCCCCC1 (stereo not drawn) [H, 2-ethoxy-4-[N-{1-(2-hexamethyleneimino-phenyl)-1-butyl}-aminocarbonylmethyl]-benzoic acid]	-42	-34	-18	–	–	–	–	–	Change in glucose content compared with control (blood glucose; 0.5 mg/kg, 4 h): n.s.
CCOc1cc(CC(=O)NC(C(=O)OC(C)C)c2ccccc2N2CCCCC2)ccc1C(=O)O (stereo not drawn) [T, 2-ethoxy-4-[N-(α-isopropoxycarbonyl-2-piperidino-benzyl)-aminocarbonylmethyl]benzoic acid]	–	–	–	–	-36	-21	-18	–	Change in glucose content compared with control (blood glucose; 1 mg/kg, 4 h): n.s.
CCCCC(NC(=O)Cc1ccc(C(=O)O)c(OCC)c1)c1ccccc1N1CCCCC1 (stereo not drawn) [L, 2-ethoxy-4-[N-{1-(2-piperidino-phenyl)-1-pentyl}-aminocarbonylmethyl]-benzoic acid]	-42	-45	-38	-39	–	–	–	–	–
